Legend:
[1] = test system: transection of the tail of rats; assay: Bleeding time (transection of the tail); type: in vivo; conditions: rat tail transection, 1 mg/kg i.v. 5 min before transection
Procedure: The hemorrhagic risk associated to a treatment with selected compounds were determined using an experimental model of bleeding: transection of the tail of rats.
Bleeding time was determined by transection of the tail, 2 mm from the tip, of […] rats (30 mg/kg i.p.). The compounds were injected i.v. at the indicated doses 5 min before tail transection. Blood was carefully blotted every 15 s on a filter paper. Haemostasis was considered to be achieved when no more blood stain was observed over 1 min.

[2] = test system: thrombus formation in a venous thrombosis model in the rat; assay: Stasis-induced thrombosis (venous thrombosis model); type: in vivo; conditions: iv, i.v. 5 min before thrombosis induction, tissue factor plus stasis, read-out: Stasis-induced thrombosis (ED50 ± SD)
Procedure: 1. Stasis-Induced Thrombosis
Using a combination of thrombogenic challenge (0.045 ng/kg of tissue factor) and stasis, compounds were tested for their abillity to affect thrombus formation in a venous thrombosis model in the rat.
Thrombus formation by a combination of stasis and hypercoagulability was induced as described by Vogel et al. (Thromb. Res., 1989, 54, 399410). Male sprague-Dawley rats (250-300 g) were anaesthetized with sodium pentobarbitone (30 mg/kg, i.p.). The abdomen of the animals was surgically opened and after careful dissection, the vena cava was exposed and dissected free from surrounding tissue. Saline, or the various compounds were administered i.v. 5 min before thrombosis induction. […] Human tissue factor (0.045 ng/kg, i.v.) was injected into the dorsal vein of the penis. Ten seconds after the end of the injection, stasis were established by tightening the […] the proximal and then the distal. The abdominal cavity was provisionally closed and stasis was maintained for 20 minutes. The cavity was then reopened, the ligated segment was opened longitudinally and the thrombus formed was removed, rinsed, blotted on filter paper, dried overnight at 60° C. and weighed. Under these experimental conditions, control thrombus weight was 5.5±0.1 mg (n=15).

trypsin = target: T1, trypsin (UniProt P00760); assay: Determination of trypsin Ki (chromogenic substrate S-2222); type: biochemical; conditions: S-2222, 25° C.
T1 construct: Trypsin (6000 E/mg prot; Sigma): dissolved in distilled water to give a stock solution of 300 E/mL
T1 sequence (P00760 1-246): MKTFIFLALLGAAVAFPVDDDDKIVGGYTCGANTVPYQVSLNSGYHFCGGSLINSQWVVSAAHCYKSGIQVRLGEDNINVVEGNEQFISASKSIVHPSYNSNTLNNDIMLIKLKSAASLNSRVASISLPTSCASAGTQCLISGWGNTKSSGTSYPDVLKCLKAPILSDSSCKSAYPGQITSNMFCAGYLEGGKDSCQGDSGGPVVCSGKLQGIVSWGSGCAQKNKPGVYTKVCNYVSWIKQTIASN
Procedure: (§1) The enzyme inhibitory effect of the compounds can be identified by determination of inhibition constant Ki. It denotes the degree of dissociation of the enzyme-inhibitor complex. Low dissociation constant means high potency of inhibitor. Ki can be determined during reaction of the enzyme with a specific chromogenic substrate which under hydrolysis by the enzyme develops color. Reaction in time is recorded by spectrophotometry and Ki is calculated from kinetic parameters (Vmax, Km, reaction rate).
2. Determination of Trypsin Ki
The ability of a compound to act as an inhibitor of trypsin catalytic activity was assessed by determination of Ki.
50 μL of buffer, 50 μL of test compound in water (final concentrations from 50 to 300 μM) and 50 μL of trypsin (3 mE/mL f.c.) were incubated for 15 minutes at room temperature.
(§2) Trypsin activity was determined from the change in absorbance in the linear part of velocity graph. […] The Km for the substrate was determined under test conditions with at least 6 substrate concentrations varying around Km and calculated with the non-linear regression program Curve expert.

human thrombin = target: T2, human thrombin (Homo sapiens, UniProt P00734); assay: Determination of thrombin Ki (chromogenic substrate S-2238); type: biochemical
T2 construct: Human thrombin (308 NIH; Sigma); purchased Sigma
Procedure: as §1
1. Determination of Thrombin Ki
The ability of a compound to act as an inhibitor of human thrombin catalytic activity was assessed by determination of Ki.
A mixture of 50 μL of buffer, 50 μL of inhibitor in water (final concentrations from 10 to 100 μM) and 50 μL of thrombin (0.5 NIH U/mL f.c.) was incubated for 15 minutes at room temperature.
as §2, with “Thrombin” for “Trypsin”, “of the” for “of”, “under the” for “under”, “programme” for “program”

trypsin / thrombin = assay: Selectivity to thrombin (ratio of Ki for trypsin to Ki for thrombin); type: biochemical
Procedure: 3. Selectivity to Thrombin
By the use of other serine protease like trypsin with the appropriate chromogenic substrate, selectivity of inhibitors with respect to thrombin was determined. Selectivity of an inhibitor is expressed as a ratio of Ki for trypsin to Ki for thrombin.

[3] = test system: normal pooled human plasma; assay: Activated partial thromboplastin time (aPTT) coagulation assay; type: biochemical; conditions: concentration of inhibitor that doubled the clotting time
Procedure: (§3) The Anticoagulant effect of thrombin inhibitors was measured by thrombin time (TT), activated partial thromboplastin time (aPTT), and prothrombin time (PT) assays. Inhibitors were added to normal pooled human plasma over a range of concentrations and clotting was recorded in an automated coagulometer (Fibrintimer, Dade/Behring). The concentration of inhibitor that doubled the clotting time was determined for each assay.
2. Activated Partial Thromboplastin Time (aPTT)
Incubation of plasma with the optimal quantity of phospholipids and a surface activator leads to activation of factors of the intrinsic coagulation pathway. The addition of calcium ions triggers the coagulation process. The time of fibrin clot formation wass measured. aPTT was used as a screening test for coagulation disorders of the intrinsic coagulation pathway. It is prolonged due to intrinsic coagulation factors deficit or due to the presence of inhibitors.
b) Reagents • Pathromtin SL (Dade/Behring): silicon dioxide particles, vegetable phospholipids, sodium chloride (2.4 g/L), Hepes (14.3 g/L, pH 7.6), sodium azide (<1 g/L). […]
Inhibitor (10 μL working solution, concentrations from 5 μM to 100 μM) and pooled plasma (90 μL) were incubated at 37° C. for 5 minutes. […] The addition of calcium chloride (100 μL) triggered the coagulation process and clot formation was detected with a coagulometer in duplicate.

[4] = test system: normal pooled human plasma; assay: Thrombin time (TT) coagulation assay; type: biochemical; conditions: concentration of inhibitor that doubled the clotting time
Procedure: as §3
In a plasma sample thrombin converts fibrinogen into fibrin and the clot is formed. The time for clot formation was measured. Thrombin time is prolonged due to disorders in fibrin polymerisation or due to the presence of thrombin inhibitors.
b) Reagents • Thrombin (Test Thrombin Reagent, 1.5 IU/mL, Dade/Behring): lyophilized bovine thrombin was dissolved in 5 mL of HEPES (25 mmol/L, pH 7.4). The reagent was warmed to 37° C. prior to the assay. • Normal pooled plasma: venous blood from 11 apparently healthy volunteers was collected (1 part 0.11 mol/L sodium citrate solution with 9 parts of blood) and centrifuged immediately at 2000×g for 30 minutes at 4° C. […]
Inhibitors (10 μL working solution, concentrations from 2.5 μM to 100 μM) and pooled plasma (90 μL) were incubated at 37° C. for 5 minutes and then thrombin (200 μL) was added. Clot formation was measured in a coagulometer in duplicate.

[5] = test system: normal pooled human plasma; assay: Prothrombin time (PT) coagulation assay; type: biochemical; conditions: concentration of inhibitor that doubled the clotting time
Procedure: as §3
An optimal amount of thromboplastin and calcium are added to plasma sample and the time of fibrin clot formation wass measured. PT is a rapid, sensitive screening test for coagulation disorders of the extrinsic pathway. It is well suited for the induction and monitoring of oral anticoagulant therapy, for diagnosing genetic or acquired deficiencies in coagulation factors and checking the synthesis performance of the liver in hepatic diseases. PT is prolonged due to extrinsic coagulation factors deficit or due to the presence of inhibitors.
b) Reagents • Thromboplastin (Thromborel S, Dade/Behring): was dissolved in 4 mL of distilled water. […]
Inhibitor (10 μL working solution, concentrations from 5 μM to 100 μM) and pooled plasma (90 μL) were incubated at 37° C. for 5 minutes and then Thromborel S (200 μL) was added. Clot formation was measured with a coagulometer in duplicate.

[6] = text comparison of SI 20025 compound with compound of the present invention

Q: Which “Bleeding (fold increase at 1 mg/kg)” value [1] does the source give for `N/C(=N\O)c1cccc(CN(NS(=O)(=O)c2ccc3ccccc3c2)C(=O)N2CCCCCC2)c1` [drawing 49] here?
A: 3.3 fold increase

Q: And the ED50 [2]?
A: 0.29 ± 0.011 mg/kg

Q: With `COc1ccc2cc(S(=O)(=O)NN(Cc3cccc(C(=N)N)c3)C(=O)N3CCCCCC3)ccc2c1` as the compound, how does the Ki (trypsin) read?
A: 0.053 µM

Q: And the Ki (human thrombin; human thrombin, S-2238, 25° C.)?
A: 0.009 µM

Q: And the “Ki trypsin/Ki thrombin” value (trypsin / thrombin)?
A: 5.84

Q: What does the source list for `COc1ccc2cc(S(=O)(=O)NN(Cc3cccc(C(=N)NO)c3)C(=O)N3CCCCCC3)ccc2c1`?
A: Ki (trypsin): 17.9 µM; Ki trypsin/Ki thrombin (trypsin / thrombin): 29

Q: With `Cl.N=C(N)c1cccc(CN(NS(=O)(=O)c2ccc3ccccc3c2)C(=O)N2CCCCCC2)c1` as the compound, how does the melting point read?
A: 151 to 154 °C

Q: For `N=C(N)c1cccc(CN(NS(=O)(=O)c2ccc3ccccc3c2)C(=O)N2CCCCCC2)c1` [drawing 46], which Ki (trypsin) is on record?
A: 0.143 µM

Q: What about the Ki (human thrombin; human thrombin, S-2238, 25° C.) of the same compound?
A: 0.005 µM

Q: Which melting point does the source give for `COc1ccc2cc(S(=O)(=O)NN(Cc3cccc(/C(N)=N/O)c3)C(=O)N3CCC(C)CC3)ccc2c1` [Example 17, N′-Hydroxy-3-({2-[(6-methoxy-2-naphthyl)sulfonyl]-1-[(4-methyl-1-piperidinyl)carbonyl]hydrazino}methyl)benzenecarboximidamide] here?
A: 154 to 156 °C

Q: Which melting point does the source give for `CC1CCCCN1C(=O)N(Cc1cccc(/C(N)=N/O)c1)NS(=O)(=O)c1ccc2ccccc2c1` (stereo not shown) [Example 13, N′-hydroxy-3-{[1-[(2-methyl-1-piperidinyl)carbonyl]-2-(2-naphthylsulfonyl)hydrazino]methyl}benzenecarboximidamide] here?
A: 101 to 103 °C

Q: Which results are given for `COc1ccc2cc(S(=O)(=O)NN(Cc3cccc(C(=N)N)c3)C(=O)N3CCC(C)CC3)ccc2c1`?
A: Ki (human thrombin; human thrombin, S-2238, 25° C.): 0.011 µM; aPTT [3]: 2.1 µM; TT [4]: 2.0 µM; PT [5]: 2.7 µM

Q: For `N=C(N)c1cccc(CN(NS(=O)(=O)c2ccc3ccccc3c2)C(=O)N2CCCCCC2)c1` [drawing 50], which ED50 [2] is on record?
A: 0.07 ± 0.005 mg/kg

Q: With `N=C(N)Cc1ccc(CN(NS(=O)(=O)c2ccc3ccccc3c2)C(=O)N2CCCCCC2)cc1` [compound b] as the compound, how does the Ki (human thrombin; [6]) read?
A: 0.005 µM

Q: For `CC1CCN(C(=O)N(Cc2cccc(C(=N)NO)c2)NS(=O)(=O)c2ccc3ccccc3c2)CC1`, which Ki (trypsin) is on record?
A: > 68.3 µM

Q: And the Ki (human thrombin; human thrombin, S-2238, 25° C.)?
A: 0.469 µM

Q: And the “Ki trypsin/Ki thrombin” value (trypsin / thrombin)?
A: 146

Q: For `COc1ccc2cc(S(=O)(=O)NN(Cc3cccc(/C(N)=N/O)c3)C(=O)N3CCCCCC3)ccc2c1` [Example 23, 3-({1-(1-Azepanylcarbonyl)-2-[(6-methoxy-2-naphthyl)sulfonyl]hydrazino}methyl)-N′-hydroxybenzenecarboximidamide], which melting point is on record?
A: 173 to 175 °C

Q: With `CC1CCN(C(=O)N(Cc2cccc(C(=N)N)c2)NS(=O)(=O)c2ccc3ccccc3c2)CC1` as the compound, how does the Ki (trypsin) read?
A: 0.112 µM

Q: And the Ki (human thrombin; human thrombin, S-2238, 25° C.)?
A: 0.004 µM

Q: Which melting point does the source give for `COc1ccc2cc(S(=O)(=O)NN(Cc3cccc(/C(N)=N/O)c3)C(=O)N3CCCCC3C)ccc2c1` (stereo not shown) [Example 15, N′-Hydroxy-3-({2-[(6-methoxy-2-naphthyl)sulfonyl]-1-[(2-methyl-1-piperidinyl)carbonyl]hydrazino}methyl)benzenecarboximidamide] here?
A: 172 to 175 °C

Q: What does the source list for `N/C(=N\O)c1cccc(CN(NS(=O)(=O)c2ccc3ccccc3c2)C(=O)N2CCCCCC2)c1` [drawing 45]?
A: Ki (trypsin): 32.2 µM; Ki (human thrombin; human thrombin, S-2238, 25° C.): 0.594 µM; Ki trypsin/Ki thrombin (trypsin / thrombin): 54

Q: With `COc1ccc2cc(S(=O)(=O)NN(Cc3cccc(C(=N)N)c3)C(=O)N3CCCCCC3)ccc2c1.Cl` as the compound, how does the melting point read?
A: 151 to 154 °C

Q: For `N=C(N)c1ccc(CN(NS(=O)(=O)c2ccc3ccccc3c2)C(=O)N2CCCCCC2)cc1` [compound a, reference compound], which Ki (human thrombin; [6]) is on record?
A: 0.032 µM

Q: For `COc1ccc2cc(S(=O)(=O)NN(Cc3cccc(C(=N)N)c3)C(=O)N3CCC(C)CC3)ccc2c1.Cl`, which melting point is on record?
A: 151 to 154 °C
